# Patent US8722681B2, “N-sulfonyl thiazolylpiperazine derivatives and related N-sulfonyl heterocyclic derivatives for the treatment of neuro degenerative diseases” (NV reMYND, priority 2007, dated 2014)
# Tested on: M17-SYNwt cells
# Test: α-synuclein cytotoxicity assay (LDH leakage from paraquat-treated M17-SYNwt cells)
# Type: cell-based, human
# Conditions: for EC50: Homo sapiens, M17-SYNwt cells, paraquat 32 mM, 40 hours, LDH activity; for % inh. (percentage inhibition) / % I (percentage inhibition): inhibition of synuclein toxicity at most effective concentration relative to untreated paraquat cells
# Text: An α-synuclein expression plasmid was constructed by sub-cloning the NcoI/XhoI fragment from 212T-SYN(WT) (Griffioen et al., Biochem Biophys Acta (2006) 1762(3):312-318) containing the cDNA of human wild type α-synuclein correspondingly into a standard mammalian expression vector pcDNA3.1 resulting in plasmid pcDNA3.1-SYNwt. Plasmid pcDNA3.1 and pcDNA3.1-SYNwt were transfected to human neuroblastoma cells (ATCC No. CRL-2267) and independent clonal lines with the plasmids stably integrated into the genome were selected. […] Over-expression of α-synuclein in M17-SYNwt cell lines was confirmed by Western analysis.
# Due to the high levels of α-synuclein M17-SYNwt cells are exquisitely sensitivity to paraquat, a well-known risk factor of synuclein-dependent neuronal degeneration. In degenerated or dead cells lactate dehydrogenase (LDH) is leaked out of the cells into the extracellular environment due to a loss of plasma-membrane integrity. This principle was used to determine cytotoxicity by quantifying the level of leaked LDH into the growth medium.
# The detailed method for determining α-synuclein cytotoxicity was as follows: From appropriate precultures of M17 and M17-SYN cells were seeded at 50000 cells/cm^2 in Optimem Reduced Serum without phenol red (InVitrogen, Cat. 31985-047) supplemented with 5% fetal calf serum, 1 mM sodium pyruvate, 1×non-essential amino acids, 500 μg/ml G418 0.5×antibiotic/antimycotic. After 3 hours of incubation at 37° C./5% CO2 paraquat was added to the cells (final concentration of 32 mM), together with the test compound and the cells were further incubated for 40 hours. Subsequently, LDH activity was determined using Promega Cytotox 96 Non-Radioactive cytotoxicity assay, (Cat. G1780) according the supplier's instructions.
# This α-synuclein expressing neuroblastoma cells made it possible to assess the ability of novel compounds to counteract α-synuclein cytotoxicity. […] Since this method monitors leaked LDH from degenerated or dead cells only non-toxic compounds will be identified as active inhibitors of α-synuclein-mediated cytotoxicity. Lack of toxicity is an important characteristic for compounds to be used as a medicament to patients in need. A compound was considered to be active in this test when it inhibits α-synuclein cytotoxicity by more than 25% relative to untreated M17-SYNwt cells at a concentration of 20 μg/mL or lower. In the experiments, the control group consisted of M17-SYNwt cells treated with DMSO, the untreated paraquat group consisted of M17-SYNwt cells treated with paraquat and DMSO, and the treated paraquat group consisted of M17-SYNwt cells treated with paraquat and the test compound dissolved in DMSO.
# Percent inhibition was calculated as the synuclein toxicity inhibition by the compound in treated paraquat cells, relative to the synuclein cytotoxicity in untreated paraquat cells.
# The compounds from table 1 were screened for activity using the α-synuclein cytotoxicity assay as described above. Dose responses were carried out on all compounds found to be active (10 point curves in duplicate).
Structure (SMILES),EC50 (Table 2) [nM],% inh. (percentage inhibition) (Table 2) [%],EC50 (Table 1) [nM],% I (percentage inhibition) (Table 1) [%]
"CC(=O)NCCc1ccc(S(=O)(=O)N2CCN(c3nc(-c4ccccc4)cs3)CC2)cc1 [Compound 34, N-(4-(4-(4-phenylthiazol-2-yl)piperazin-1-ylsulfonyl)phenethyl)acetamide]",3090,46,,
"COc1cccc(Cc2csc(N3CCN(S(=O)(=O)c4ccccc4OC)CC3)n2)c1 [Compound 16, 1-(4-(3-methoxybenzyl)thiazol-2-yl)-4-(2-methoxyphenylsulfonyl)piperazine]",3590,76,,
"COc1cccc(Cc2csc(N3CCN(S(=O)(=O)c4ccc(F)cc4)CC3)n2)c1 [Compound 30, 1-(4-(3-methoxybenzyl)thiazol-2-yl)-4-(4-fluorophenylsulfonyl)piperazine]",405,98,,
"COc1cccc(Cc2csc(N3CCN(S(=O)(=O)c4ccc(C#N)cc4)CC3)n2)c1 [Compound 29, 4-(4-(4-(3-methoxybenzyl)thiazol-2-yl)piperazin-1-ylsulfonyl)benzonitrile]",1270,42,,
"COc1ccc(OC)c(S(=O)(=O)N2CCN(c3nc(-c4ccccc4)cs3)CC2)c1 [Compound 36, 1-(2,5-dimethoxyphenylsulfonyl)-4-(4-phenylthiazol-2-yl)piperazine]",950,121,,
"COc1ccc(S(=O)(=O)N2CCN(c3nc(Cc4cccc(F)c4)cs3)CC2)cc1 [Compound 13, 1-(4-(3-fluorobenzyl)thiazol-2-yl)-4-(4-methoxyphenylsulfonyl)piperazine]",11.5,92,,
"COc1cc(F)ccc1S(=O)(=O)N1CCN(c2nc(-c3ccc(C)cc3)cs2)CC1 [Compound 51, 1-(4-fluoro-2-methoxyphenylsulfonyl)-4-(4-(4-methylphenyl)thiazol-2-yl)piperazine]",2500,88,,
"COc1cccc(Cc2csc(N3CCN(S(=O)(=O)c4cn(C)cn4)CC3)n2)c1 [Compound 26, 1-(4-(3-methoxybenzyl)thiazol-2-yl)-4-(1-methyl-1H-imidazol-4-ylsulfonyl)piperazine]",870,87,,
"COc1ccc(-c2csc(N3CCN(S(=O)(=O)c4cc(OC)ccc4OC)CC3)n2)cc1 [Compound 39, 1-(2,5-dimethoxyphenylsulfonyl)-4-(4-(4-methoxyphenyl)thiazol-2-yl)piperazine]",6750,107,,
"COc1ccc(S(=O)(=O)N2CCN(Cc3nc(-c4ccc(F)cc4)cs3)CC2)cc1 [Compound 47, 1-((4-(4-fluorophenyl)thiazol-2-yl)methyl)-4-(4-methoxyphenylsulfonyl)piperazine]",39.9,86,,
"COc1cccc(Cc2csc(N3CCN(S(=O)(=O)c4cccc(OC)c4)CC3)n2)c1 [Compound 17, 1-(4-(3-methoxybenzyl)thiazol-2-yl)-4-(3-methoxyphenylsulfonyl)piperazine]",4360,130,,
"COc1cccc(Cc2csc(N3CCN(S(=O)(=O)c4ccc5c(c4)OCO5)CC3)n2)c1 [Compound 19, 1-(4-(3-methoxybenzyl)thiazol-2-yl)-4-(benzo[d][1,3]dioxol-5-ylsulfonyl)piperazine]",251,84,,
"Cc1n[nH]c(C)c1S(=O)(=O)N1CCN(c2nc(-c3ccc(F)cc3)cs2)CC1 [Compound 55, 1-(4-(4-fluorophenyl)thiazol-2-yl)-4-(3,5-dimethyl-1H-pyrazol-4-ylsulfonyl)piperazine]",657,91,,
CCCc1sc(N2CCN(S(=O)(=O)c3ccc(C)cc3)CC2)nc1-c1ccccc1 [Compound 4],,,203,61
"O=S(=O)(c1cccc2nonc12)N1CCN(c2nc(-c3ccc(F)cc3)cs2)CC1 [Compound 74, 4-(4-(4-(4-fluorophenyl)thiazol-2-yl)piperazin-1-ylsulfonyl)benzo[c][1,2,5]oxadiazole]",233,41,,
"Cc1ccc(-c2csc(N3CCN(S(=O)(=O)N4CCCC4)CC3)n2)cc1 [Compound 62, 1-(4-(4-methylphenyl)thiazol-2-yl)-4-(pyrrolidin-1-ylsulfonyl)piperazine]",1930,112,,
"COc1cccc(Cc2csc(N3CCN(S(=O)(=O)c4cccnc4)CC3)n2)c1 [Compound 20, 1-(4-(3-methoxybenzyl)thiazol-2-yl)-4-(pyridin-3-ylsulfonyl)piperazine]",1720,76,,
"COc1ccc(OC)c(S(=O)(=O)N2CCN(c3nc(-c4ccc(Cl)cc4)cs3)CC2)c1 [Compound 37, 1-(4-(4-chlorophenyl)thiazol-2-yl)-4-(2,5-dimethoxyphenylsulfonyl)piperazine]",1290,74,,
"COc1ccc(S(=O)(=O)N2CCC(c3nc(-c4ccc(F)cc4)cs3)CC2)cc1 [Compound 48, 4-(4-(4-fluorophenyl)thiazol-2-yl)-1-(4-methoxyphenylsulfonyl)piperidine]",49.4,90,,
O=S(=O)(c1ccc(Cl)cc1)N1CCN(c2nc(-c3ccc(F)cc3)cs2)CC1 [Compound 6],,,300,88
"O=S(=O)(c1cccs1)N1CCN(c2nc(-c3ccc(Cl)cc3)cs2)CC1 [Compound 58, 1-(thiophen-2-ylsulfonyl)-4-(4-(4-chlorophenyl)thiazol-2-yl)piperazine]",3750,99,,
"COc1ccccc1-c1csc(N2CCN(S(=O)(=O)c3cccc4c3ccn4C)CC2)n1 [Compound 77, 4-(4-(4-(2-methoxyphenyl)thiazol-2-yl)piperazin-1-ylsulfonyl)-1-methyl-1H-indole]",257,69,,
"COc1ccc(S(=O)(=O)N2CCN(Cc3nc(Cc4cccc(OC)c4)cs3)CC2)cc1 [Compound 32, 1-((4-(3-methoxybenzyl)thiazol-2-yl)methyl)-4-(4-methoxyphenylsulfonyl)piperazine]",159,95,,
Cc1ccc(S(=O)(=O)N2CCN(c3nc(-c4ccc(F)cc4)cs3)CC2)cc1 [Compound 2],,,160,70
"COc1ccc(S(=O)(=O)N2CCN(c3nc(Cc4cccc(C#N)c4)cs3)CC2)cc1 [Compound 12, 3-((2-(4-(4-methoxyphenylsulfonyl)piperazin-1-yl)thiazol-4-yl)methyl)benzonitrile]",3.2,66,,
"COc1ccc(-c2csc(N3CCN(S(=O)(=O)N4CCCC4)CC3)n2)cc1 [Compound 63, 1-(4-(4-methoxyphenyl)thiazol-2-yl)-4-(pyrrolidin-1-ylsulfonyl)piperazine]",3180,69,,
"COc1ccc(S(=O)(=O)N2CCN(c3nc(Cc4cccs4)cs3)CC2)cc1 [Compound 10, 1-(4-methoxyphenylsulfonyl)-4-(4-(thiophen-2-ylmethyl)thiazol-2-yl)piperazine]",12,93,,
"Cc1ccc(S(=O)(=O)N2CCN(c3nc(-c4cccs4)cs3)CC2)cc1 [Compound 78, 1-(4-(thiophen-2-yl)thiazol-2-yl)-4-tosylpiperazine]",316,84,,
"COc1cccc(Cc2csc(N3CCN(S(=O)(=O)c4ccsc4)CC3)n2)c1 [Compound 22, 1-(4-(3-methoxybenzyl)thiazol-2-yl)-4-(thiophen-3-ylsulfonyl)piperazine]",1000,89,,
"O=S(=O)(N1CCCC1)N1CCN(c2nc(-c3ccccc3)cs2)CC1 [Compound 61, 1-(4-phenylthiazol-2-yl)-4-(pyrrolidin-1-ylsulfonyl)piperazine]",1740,127,,
